According to patent US5776944A, “7-(4-aminomethyl-3-methyloxyiminopyrroplidin-1-yl)-1-cyclopropyl-6-flu oro-4-oxo-1,4-dihydro-1,8-naphthyridine-3-carboxylic acid and the process for the preparation thereof” (LG Chemical Ltd., priority 1994, dated 1998):
In brackets after ≈: the same amount, converted by molar mass. Where two headings read alike, the source gives them in different places.

Key:
[1] = tested on: Staphylococcus epidermidis 887E; assay: In vitro antibacterial activity (MIC, agar medium dilution), Biological Example 4; format: cell-based; conditions: 18 h, Staphylococcus epidermidis 887E, Table 31, read-out: Minimum Inhibitory Concentration: MIC
[2] = tested on: Escherichia coli TEM9 2639E; assay: as above; format: cell-based; conditions: TEM92639E, 18 h, read-out: Minimum Inhibitory Concentration: MIC
[3] = tested on: Pseudomonas aeruginosa 6065Y; assay: as above; format: cell-based; conditions: 18 h, Table 31, read-out: Minimum Inhibitory Concentration: MIC
Description: (§1) In order to determine the antibacterial activitiers of the E- and Z-isomner of the compound 180 which were separated in Example 203, and of 7- (4-aminomethyl-3-methyloxylminopyrrolidin-1-yl)-1-cyclopropyl-6-fluoro-4-oxo-1,4-dihydro-1,8-naphthyridine-3-carboxylic acid methanesulfonate prepared in Example 204, in vitro antibacterial activities of them were measured using agar medium dilution method. The results were as described in the following Tables 31 and 32.

[4] = tested on: Seratis marsecence 1826E; assay: as above; format: cell-based; conditions: 18 h, Table 31, read-out: Minimum Inhibitory Concentration: MIC
Description: as §1

[5] = tested on: Pseudomonas aeruginosa 1912E; assay: as above; format: cell-based; conditions: 18 h, Table 31, read-out: Minimum Inhibitory Concentration: MIC
[6] = tested on: Pseudomonas aeruginosa 10145; assay: as above; format: cell-based; conditions: Pseudomonas aeruginosa, 10145, 18 h, Pseudomonas aeruginosa 10145, Table 31; read-out: Minimum Inhibitory Concentration: MIC
[7] = tested on: Acinetobacter calcoaceticus 15473; assay: as above; format: cell-based; conditions: 18 h; Acinetobacter calcoaceticus 15473, Table 31; read-out: Minimum Inhibitory Concentration: MIC
[8] = tested on: Salmonella thypimurium 14028; assay: as above; format: cell-based; conditions: 18 h; Salmonella thypimurium 14028, Table 31; read-out: Minimum Inhibitory Concentration: MIC
[9] = tested on: Klebsiella aerogenes 1082E; assay: as above; format: cell-based; conditions: 18 h, Table 31, read-out: Minimum Inhibitory Concentration: MIC
[10] = tested on: Klebsiella aerogenes 1976E; assay: as above; format: cell-based; conditions: 18 h, Table 31, read-out: Minimum Inhibitory Concentration: MIC
[11] = tested on: Micrococcus luteus 9341; assay: as above; format: cell-based; conditions: 18 h; Micrococcus luteus 9341, Table 31; read-out: Minimum Inhibitory Concentration: MIC
[12] = tested on: Staphylococcus epidermidis 178; assay: as above; format: cell-based; conditions: 18 h; Staphylococcus epidermidis 178, Table 31; read-out: Minimum Inhibitory Concentration: MIC
[13] = tested on: Staphylococcus aureus giorgio; assay: as above; format: cell-based; conditions: 18 h, Table 31, read-out: Minimum Inhibitory Concentration: MIC
[14] = tested on: Staphylococcus aureus 241; assay: as above; format: cell-based; conditions: Staphylococcus aureus, 241, 18 h, Staphylococcus aureus 241, Table 31; read-out: Minimum Inhibitory Concentration: MIC
[15] = tested on: Streptococcus faecalis 29212; assay: as above; format: cell-based; conditions: Enterococcus faecalis, 29212, 18 h, Streptococcus faecalis 29212, Table 31; read-out: Minimum Inhibitory Concentration: MIC
[16] = tested on: Enterobacter cloacae 1194E; assay: microbe, parasite or virus in culture; format: cell-based; conditions: 18 h, read-out: Minimum Inhibitory Concentration: MIC
[17] = tested on: Escherichia coli TEM5 3739E; assay: In vitro antibacterial activity (MIC, agar medium dilution), Biological Example 4; format: cell-based; conditions: TEM53739E, 18 h, read-out: Minimum Inhibitory Concentration: MIC
[18] = tested on: Bacillus subtilis 6633; assay: as above; format: cell-based; conditions: 18 h; Bacillus subtilis 6633, Table 31; read-out: Minimum Inhibitory Concentration: MIC
[19] = tested on: Escherichia coli 851E; assay: as above; format: cell-based; conditions: 18 h, Table 31, read-out: Minimum Inhibitory Concentration: MIC
[20] = tested on: Staphylococcus aureus 77; assay: as above; format: cell-based; conditions: 18 h; Staphylococcus aureus 77, Table 31; read-out: Minimum Inhibitory Concentration: MIC
[21] = tested on: Citrobacter diversus 2046E; assay: as above; format: cell-based; conditions: Citrobacter koseri, 18 h, Table 31, read-out: Minimum Inhibitory Concentration: MIC
[22] = tested on: Escherichia coli 3190Y; assay: as above; format: cell-based; conditions: 18 h, Table 31, read-out: Minimum Inhibitory Concentration: MIC
[23] = tested on: Staphylococcus aureus 6538p; assay: as above; format: cell-based; conditions: 18 h, Table 31, read-out: Minimum Inhibitory Concentration: MIC
[24] = tested on: Proteus vulgaris 6059; assay: as above; format: cell-based; conditions: 18 h; Proteus vulgaris 6059, Table 31; read-out: Minimum Inhibitory Concentration: MIC
[25] = tested on: Escherichia coli 10536; assay: as above; format: cell-based; conditions: Escherichia coli, 10536, 18 h, Escherichia coli 10536, Table 31; read-out: Minimum Inhibitory Concentration: MIC
[26] = tested on: test strains; assay: In vitro antibacterial activity, overall finding, Biological Example 4; format: cell-based; conditions: Tables 31 and 32
Description: as §1

[27] = tested on: Escherichia coli TEM3 3455E; assay: In vitro antibacterial activity (MIC, agar medium dilution), Biological Example 4; format: cell-based; conditions: TEM33455E, 18 h, read-out: Minimum Inhibitory Concentration: MIC, Escherichia coli TEM3 3455E, Table 31
[28] = tested on: Enterobacter cloacae P99; assay: microbe, parasite or virus in culture; format: cell-based; conditions: P99, 18 h, read-out: Minimum Inhibitory Concentration: MIC
[29] = phosphate buffered solution

Structure (SMILES)	MIC [1] [µg/mL]	MIC [2] [µg/mL]	MIC [3] [µg/mL]	MIC [4] [µg/mL]	MIC [5] [µg/mL]	MIC [6] [µg/mL]	MIC [7] [µg/mL]	MIC [8] [µg/mL]	MIC [9] [µg/mL]	MIC [10] [µg/mL]	MIC [11] [µg/mL]	MIC [12] [µg/mL]	MIC [13] [µg/mL]	MIC [14] [µg/mL]	MIC [15] [µg/mL]	MIC [16] [µg/mL]	MIC [17] [µg/mL]	MIC [18] [µg/mL]	MIC [19] [µg/mL]	MIC [20] [µg/mL]	other results
CO/N=C1\CN(c2nc3c(cc2F)c(=O)c(C(=O)O)cn3C2CC2)CC1CN (stereo not drawn) [Z-isomer]	≤ 0.008	0.031 (≈ 0.0796 µM)	8 (≈ 20.5 µM)	0.25 (≈ 0.642 µM)	0.5 (≈ 1.28 µM)	0.5 (≈ 1.28 µM)	0.063 (≈ 0.162 µM)	0.031 (≈ 0.0796 µM)	0.031 (≈ 0.0796 µM)	0.063 (≈ 0.162 µM)	0.13 (≈ 0.334 µM)	4 (≈ 10.3 µM)	≤ 0.008	4 (≈ 10.3 µM)	0.063 (≈ 0.162 µM)	0.031 (≈ 0.0796 µM)	0.13 (≈ 0.334 µM)	≤ 0.008	0.016 (≈ 0.0411 µM)	0.031 (≈ 0.0796 µM)	MIC [21]: 0.031 µg/mL (≈ 0.0796 µM); MIC [22]: ≤ 0.008 µg/mL; MIC [23]: ≤ 0.008 µg/mL; MIC [24]: 0.25 µg/mL (≈ 0.642 µM); MIC [25]: ≤ 0.008 µg/mL; antibacterial activity [26]: superior antibacterial activity to the E-isomer; MIC [27]: 0.13 µg/mL (≈ 0.334 µM); MIC [28]: ≤ 0.008 µg/mL
CON=C1CN(c2nc3c(cc2F)c(=O)c(C(=O)O)cn3C2CC2)CC1CN (stereo not shown) [free form, 7-(4-aminomethyl-3-methyloxyiminopyrrolidin-1-yl)-1-cyclopropyl-6-fluoro-4-oxo-1,4-dihydro-1,8-naphthyridine-3-carboxylic acid]	–	–	–	–	–	–	–	–	–	–	–	–	–	–	–	–	–	–	–	–	Water Solubility ([29]; pH 2): 14.6; Water Solubility ([29]; pH 7): 0.007; antibacterial activity [26]: excellent antibacterial activity
CO/N=C1/CN(c2nc3c(cc2F)c(=O)c(C(=O)O)cn3C2CC2)CC1CN (stereo not drawn) [E-isomer]	0.031 (≈ 0.0796 µM)	0.13 (≈ 0.334 µM)	32 (≈ 82.2 µM)	0.5 (≈ 1.28 µM)	1 (≈ 2.57 µM)	2 (≈ 5.14 µM)	0.25 (≈ 0.642 µM)	0.13 (≈ 0.334 µM)	0.13 (≈ 0.334 µM)	0.25 (≈ 0.642 µM)	0.5 (≈ 1.28 µM)	32 (≈ 82.2 µM)	0.063 (≈ 0.162 µM)	16 (≈ 41.1 µM)	0.25 (≈ 0.642 µM)	0.13 (≈ 0.334 µM)	0.5 (≈ 1.28 µM)	0.031 (≈ 0.0796 µM)	0.063 (≈ 0.162 µM)	0.063 (≈ 0.162 µM)	MIC [21]: 0.13 µg/mL (≈ 0.334 µM); MIC [22]: 0.016 µg/mL (≈ 0.0411 µM); MIC [23]: 0.063 µg/mL (≈ 0.162 µM); MIC [24]: 1 µg/mL (≈ 2.57 µM); MIC [25]: 0.031 µg/mL (≈ 0.0796 µM); MIC [27]: 0.5 µg/mL (≈ 1.28 µM); MIC [28]: 0.031 µg/mL (≈ 0.0796 µM)
